≈ marks a conversion by molar mass, not a printed value.
Experiments:
Aspergillus niger = test: Tested for the whole cell antifungal activity against Aspergillus niger 48238 strain; type: functional
Candida albicans = test: Antifungal activity against Candida albicans C316 strain; type: functional
Cryptococcus neoformans = test: Antifungal activity against Cryptococcus neoformans 2867E strain; type: functional
Squalene synthase = target: T1, Squalene synthase (Rattus norvegicus, UniProt Q02769); test: Inhibition of rat liver squalene synthase(SQS)
T1 sequence (Q02769 whole entry): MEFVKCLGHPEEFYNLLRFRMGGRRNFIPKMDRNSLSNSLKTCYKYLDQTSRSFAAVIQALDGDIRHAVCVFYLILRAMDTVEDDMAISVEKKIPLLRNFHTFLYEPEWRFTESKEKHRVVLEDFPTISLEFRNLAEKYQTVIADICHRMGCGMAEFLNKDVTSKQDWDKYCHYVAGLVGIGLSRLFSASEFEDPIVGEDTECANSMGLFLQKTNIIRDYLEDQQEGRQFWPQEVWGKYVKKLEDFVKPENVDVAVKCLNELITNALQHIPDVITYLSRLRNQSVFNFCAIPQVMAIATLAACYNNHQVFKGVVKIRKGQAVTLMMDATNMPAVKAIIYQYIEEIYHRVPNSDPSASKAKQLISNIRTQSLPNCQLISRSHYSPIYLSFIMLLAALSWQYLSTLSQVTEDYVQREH

MIC (Aspergillus niger) [µg/mL] | MIC (Candida albicans) [µg/mL] | MIC (Cryptococcus neoformans) [µg/mL] | IC50 (Squalene synthase) [nM] | SMILES
> 125 | > 125 | > 125 | – | C=C(CC[C@]12O[C@H](C(=O)O)[C@@](O)(C(=O)O)[C@](C(=O)O)(O1)[C@H](OC(=O)CCCC)[C@H]2O)[C@@H](OC(C)=O)[C@H](C)Cc1ccccc1
> 125 | > 125 | > 125 | > 500 | C=C(CC[C@]12O[C@H](C(=O)O)[C@@](O)(C(=O)O)[C@](C(=O)O)(O1)[C@H](O)[C@H]2OC(=O)CCCCCCC)[C@@H](OC(C)=O)[C@H](C)Cc1ccccc1
> 125 | > 125 | > 125 | 2 | C=C(CC[C@]12O[C@H](C(=O)O)[C@@](O)(C(=O)O)[C@](C(=O)O)(O1)[C@H](OC(C)=O)[C@H]2O)[C@@H](OC(C)=O)[C@H](C)Cc1ccccc1
> 125 | > 125 | > 125 | 4 | C=C(CC[C@]12O[C@H](C(=O)O)[C@@](O)(C(=O)O)[C@](C(=O)O)(O1)[C@H](OC(=O)OCCCC)[C@H]2O)[C@@H](OC(C)=O)[C@H](C)Cc1ccccc1
8 (≈ 12 µM) | 31 (≈ 46.6 µM) | 1 (≈ 1.5 µM) | 3 | C=C(CC[C@]12O[C@H](C(=O)O)[C@@](O)(C(=O)O)[C@](C(=O)O)(O1)[C@H](OC(=O)CCCCCCC)[C@H]2O)[C@@H](OC(C)=O)[C@H](C)Cc1ccccc1
> 125 | > 125 | > 125 | – | C=C(CC[C@]12O[C@H](C(=O)O)[C@@](O)(C(=O)O)[C@](C(=O)O)(O1)[C@H](OC(=O)CCC)[C@H]2OC(=O)CCC)[C@@H](OC(C)=O)[C@H](C)Cc1ccccc1
> 125 | > 125 | > 125 | 280 | C=C(CC[C@]12O[C@H](C(=O)O)[C@@](O)(C(=O)O)[C@](C(=O)O)(O1)[C@H](OC(=O)CCCCCCC)[C@H]2OC(=O)CCCCCCC)[C@@H](OC(C)=O)[C@H](C)Cc1ccccc1
> 125 | > 125 | > 125 | 303 | C=C(CC[C@]12O[C@H](C(=O)O)[C@@](O)(C(=O)O)[C@](C(=O)O)(O1)[C@H](O)[C@H]2OC(=O)CCCCCCCCC)[C@@H](OC(C)=O)[C@H](C)Cc1ccccc1
> 125 | > 125 | – | – | C=C(CC[C@]12O[C@H](C(=O)O)[C@@](O)(C(=O)O)[C@](C(=O)O)(O1)[C@H](O)[C@H]2OC(C)=O)[C@@H](OC(C)=O)[C@H](C)Cc1ccccc1
> 125 | > 125 | – | – | C=C(CC[C@]12O[C@H](C(=O)O)[C@@](O)(C(=O)O)[C@](C(=O)O)(O1)[C@H](OC(C)=O)[C@H]2OC(C)=O)[C@@H](OC(C)=O)[C@H](C)Cc1ccccc1

Further lines, the compound ahead of its results:

SMILES | MIC (Aspergillus niger) [µg/mL] | MIC (Candida albicans) [µg/mL] | MIC (Cryptococcus neoformans) [µg/mL] | IC50 (Squalene synthase) [nM]
C=C(CC[C@]12O[C@H](C(=O)O)[C@@](O)(C(=O)O)[C@](C(=O)O)(O1)[C@H](OC(=O)OC)[C@H]2O)[C@@H](OC(C)=O)[C@H](C)Cc1ccccc1 | > 125 | > 125 | > 125 | 3
C=C(CC[C@]12O[C@H](C(=O)O)[C@@](O)(C(=O)O)[C@](C(=O)O)(O1)[C@H](OC(=O)C1CCCCC1)[C@H]2O)[C@@H](OC(C)=O)[C@H](C)Cc1ccccc1 | > 62 | > 62 | 31 (≈ 47.8 µM) | 17
C=C(CC[C@]12O[C@H](C(=O)O)[C@@](O)(C(=O)O)[C@](C(=O)O)(O1)[C@H](OC(=O)/C=C/[C@@H](C)C[C@@H](C)CC)[C@H]2OC(C)=O)[C@@H](OC(C)=O)[C@H](C)Cc1ccccc1 | 8 (≈ 10.9 µM) | > 125 | 1 (≈ 1.36 µM) | 10
C=C(CC[C@]12O[C@H](C(=O)O)[C@@](O)(C(=O)O)[C@](C(=O)O)(O1)[C@H](OC(=O)CCCCCCc1ccccc1)[C@H]2O)[C@@H](OC(C)=O)[C@H](C)Cc1ccccc1 | 62 (≈ 85.3 µM) | 125 (≈ 172 µM) | 2 (≈ 2.75 µM) | 9
C=C(CC[C@]12O[C@H](C(=O)O)[C@@](O)(C(=O)O)[C@](C(=O)O)(O1)[C@H](OC(=O)CCCCCCCCC)[C@H]2O)[C@@H](OC(C)=O)[C@H](C)Cc1ccccc1 | 2 (≈ 2.89 µM) | 16 (≈ 23.1 µM) | 2 (≈ 2.89 µM) | 8
C=C(CC[C@]12O[C@H](C(=O)O)[C@@](O)(C(=O)O)[C@](C(=O)O)(O1)[C@H](OC(=O)/C=C/c1ccccc1)[C@H]2O)[C@@H](OC(C)=O)[C@H](C)Cc1ccccc1 | > 125 | > 125 | 31 (≈ 46.4 µM) | 4
C=C(CC[C@]12O[C@H](C(=O)O)[C@@](O)(C(=O)O)[C@](C(=O)O)(O1)[C@H](OC(=O)CC1CCCCC1)[C@H]2O)[C@@H](OC(C)=O)[C@H](C)Cc1ccccc1 | 62 (≈ 93.6 µM) | 62 (≈ 93.6 µM) | 2 (≈ 3.02 µM) | –
C=C(CC[C@]12O[C@H](C(=O)O)[C@@](O)(C(=O)O)[C@](C(=O)O)(O1)[C@H](O)[C@H]2O)[C@@H](OC(C)=O)[C@H](C)Cc1ccccc1 | > 125 | > 125 | > 125 | –
C=C(CC[C@]12O[C@H](C(=O)O)[C@@](O)(C(=O)O)[C@](C(=O)O)(O1)[C@H](OC(=O)c1ccccc1)[C@H]2O)[C@@H](OC(C)=O)[C@H](C)Cc1ccccc1 | > 125 | > 125 | > 125 | 8
C=C(CC[C@]12O[C@H](C(=O)O)[C@@](O)(C(=O)O)[C@](C(=O)O)(O1)[C@H](OC(=O)/C=C/[C@@H](C)C[C@@H](C)CC)[C@H]2OC(=O)CCCCCCC)[C@@H](OC(C)=O)[C@H](C)Cc1ccccc1 | > 32 | > 32 | > 32 | –
C=C(CC[C@]12O[C@H](C(=O)O)[C@@](O)(C(=O)O)[C@](C(=O)O)(O1)[C@H](OC(=O)OCCCCCCCCC)[C@H]2O)[C@@H](OC(C)=O)[C@H](C)Cc1ccccc1 | 0.25 (≈ 0.353 µM) | 1 (≈ 1.41 µM) | 0.06 (≈ 0.0847 µM) | 7
C=C(CC[C@]12O[C@H](C(=O)O)[C@@](O)(C(=O)O)[C@](C(=O)O)(O1)[C@H](O)[C@H]2OC(=O)OC)[C@@H](OC(C)=O)[C@H](C)Cc1ccccc1 | > 125 | > 125 | > 125 | 380
C=C(CC[C@]12O[C@H](C(=O)O)[C@@](O)(C(=O)O)[C@](C(=O)O)(O1)[C@H](OC(=O)/C=C/[C@@H](C)C[C@@H](C)CC)[C@H]2OC(=O)OC)[C@@H](OC(C)=O)[C@H](C)Cc1ccccc1 | > 125 | 125 (≈ 167 µM) | > 125 | 15
C=C(CC[C@]12O[C@H](C(=O)O)[C@@](O)(C(=O)O)[C@](C(=O)O)(O1)[C@H](OC(=O)/C=C/[C@@H](C)C[C@@H](C)CC)[C@H]2O)[C@@H](OC(C)=O)[C@H](C)Cc1ccccc1 [ZARAGOZIC ACIDS A] | 16 (≈ 23.2 µM) | 8 (≈ 11.6 µM) | 0.5 (≈ 0.724 µM) | –

— ChEMBL document CHEMBL1151052, “Semi-synthetic qualestatins: Squalene synthase inhibition and antifungal activity. The SAR of C6 and C7 modifications” (Bioorg Med Chem Lett, 1993)
